In article PMC4946967 (ACS chemical biology, 2016):
Numbering of substitutions follows the chain as printed. Where “and” joins values, the source holds several entries; their conditions need not be identical. Identical values can stand only once. Entries after “also recorded” stand apart in the source; their conditions may differ. Like-named read-outs stand apart in the source and are kept apart here.

Tests used:
wt-mouse-(m)RNR-α = target: T1, wt-mouse-(m)RNR-α (Mus musculus, UniProt P07742); assay type: cell-based; conditions: 3 h treatment; 5, 50, 300 μM ClF, ClA, FlUMP; wt-mRNR-α 3T3 cells
T1 sequence (P07742 1-792): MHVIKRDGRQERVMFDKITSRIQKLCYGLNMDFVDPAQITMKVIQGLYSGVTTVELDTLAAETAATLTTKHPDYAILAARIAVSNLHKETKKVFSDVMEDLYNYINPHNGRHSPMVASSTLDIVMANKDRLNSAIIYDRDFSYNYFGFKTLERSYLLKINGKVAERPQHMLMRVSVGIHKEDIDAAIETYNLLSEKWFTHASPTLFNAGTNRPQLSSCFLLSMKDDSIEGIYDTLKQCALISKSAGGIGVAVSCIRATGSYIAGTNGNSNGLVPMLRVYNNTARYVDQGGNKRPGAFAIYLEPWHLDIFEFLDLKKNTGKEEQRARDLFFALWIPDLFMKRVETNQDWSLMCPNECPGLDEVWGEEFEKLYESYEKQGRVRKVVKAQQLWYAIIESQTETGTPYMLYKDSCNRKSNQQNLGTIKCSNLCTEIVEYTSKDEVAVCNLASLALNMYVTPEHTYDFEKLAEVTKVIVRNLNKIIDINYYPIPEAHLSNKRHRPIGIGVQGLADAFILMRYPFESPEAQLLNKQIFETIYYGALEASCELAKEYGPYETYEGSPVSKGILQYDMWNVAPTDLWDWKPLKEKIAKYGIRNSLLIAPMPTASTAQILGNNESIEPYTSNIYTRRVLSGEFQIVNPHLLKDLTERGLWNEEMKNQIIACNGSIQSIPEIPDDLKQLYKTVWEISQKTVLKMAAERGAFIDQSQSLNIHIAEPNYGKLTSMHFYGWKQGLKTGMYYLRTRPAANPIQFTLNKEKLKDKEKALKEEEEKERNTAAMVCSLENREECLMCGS

[1] = system: Flp-In 293 T-REx cells expressing D57N-α-Flag; experiment: Proliferation inhibition assay
[2] = system: Flp-In 293 T-REx cells expressing RNR-α-Flag; experiment: Proliferation inhibition assay
[3] = target: T2, mutant (D57N)-mouse(m)RNR-α (Mus musculus, UniProt P07742, D57N); assay type: cell-based; conditions: 3 h treatment; 5, 50, 300 μM ClF, ClA, FlUMP; D57N-mRNR-α 3T3 cells
T2 sequence (P07742 1-792 D57N): T1 sequence (P07742 1-792) with D57N

RNR-α [4] = target: T3, RNR-α (Homo sapiens, UniProt P23921); experiment: FRET-quenching assay reporting ligand-driven RNR-α oligomerization
T3 sequence (P23921 1-792): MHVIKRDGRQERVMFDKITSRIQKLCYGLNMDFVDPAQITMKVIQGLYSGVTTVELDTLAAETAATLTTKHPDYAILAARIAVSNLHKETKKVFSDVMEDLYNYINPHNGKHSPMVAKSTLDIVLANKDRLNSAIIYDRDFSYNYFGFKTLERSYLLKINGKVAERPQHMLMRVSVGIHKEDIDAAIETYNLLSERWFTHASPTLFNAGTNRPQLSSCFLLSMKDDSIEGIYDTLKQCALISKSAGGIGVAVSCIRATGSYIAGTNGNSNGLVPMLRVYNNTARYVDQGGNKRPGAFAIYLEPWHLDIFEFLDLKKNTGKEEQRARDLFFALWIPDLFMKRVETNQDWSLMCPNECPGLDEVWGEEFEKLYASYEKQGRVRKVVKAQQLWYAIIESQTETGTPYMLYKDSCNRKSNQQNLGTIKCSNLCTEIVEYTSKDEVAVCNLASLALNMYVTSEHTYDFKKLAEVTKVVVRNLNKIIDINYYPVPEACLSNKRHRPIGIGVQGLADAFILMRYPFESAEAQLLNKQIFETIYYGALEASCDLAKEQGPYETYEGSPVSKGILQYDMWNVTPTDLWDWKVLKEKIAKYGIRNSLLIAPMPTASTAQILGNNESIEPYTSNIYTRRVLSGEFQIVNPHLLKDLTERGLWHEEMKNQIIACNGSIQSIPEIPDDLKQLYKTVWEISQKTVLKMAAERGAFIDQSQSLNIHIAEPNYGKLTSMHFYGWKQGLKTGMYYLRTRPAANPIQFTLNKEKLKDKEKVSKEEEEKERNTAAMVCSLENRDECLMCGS

D57N-human RNR-α mutant [5] = target: T4, D57N-human RNR-α mutant (Homo sapiens, UniProt P23921, D57N); experiment: Inhibition of D57N RNR-α reductase activity; assay type: biochemical; conditions: up to at least 10-fold above the Ki for wt
T4 sequence (P23921 1-792 D57N): T3 sequence (P23921 1-792) with D57N

RNR-α [6] = target: T3, RNR-α; experiment: Gel filtration analysis of RNR-α oligomeric state; conditions: for oligomeric state by gel filtration of α presaturated with dATP (S and A sites): running buffer without nucleotides
wild type RNR-α = target: T5, wild type RNR-α (Homo sapiens, UniProt P23921); experiment: Fluorescence anisotropy displacement of Texas Red-5-dATP from wild type RNR-α; conditions: for further decrease in FA after S site preblocked with saturating dTTP: RNR-α, T*-dATP, saturating ligand then added
T5 sequence (P23921 1-792): T3 sequence (P23921 1-792)

D57N RNR-α = target: T6, D57N RNR-α (Homo sapiens, UniProt P23921, D57N); experiment: Fluorescence anisotropy displacement of Texas Red-5-dATP from D57N RNR-α; assay type: binding; conditions: D57N RNR-α 6 μM, T*-dATP 1.2 μM
T6 sequence (P23921 1-792 D57N): T3 sequence (P23921 1-792) with D57N

E. coli RNR = conditions: cited from earlier work
D57N-human RNR-α mutant [7] = target: T4, D57N-human RNR-α mutant; conditions: CDP as substrate; cited from earlier work
RNR-β = target: T7, RNR-β (Homo sapiens, UniProt P31350); experiment: RNR β-specific activity assay; assay type: biochemical
T7 sequence (P31350 1-389): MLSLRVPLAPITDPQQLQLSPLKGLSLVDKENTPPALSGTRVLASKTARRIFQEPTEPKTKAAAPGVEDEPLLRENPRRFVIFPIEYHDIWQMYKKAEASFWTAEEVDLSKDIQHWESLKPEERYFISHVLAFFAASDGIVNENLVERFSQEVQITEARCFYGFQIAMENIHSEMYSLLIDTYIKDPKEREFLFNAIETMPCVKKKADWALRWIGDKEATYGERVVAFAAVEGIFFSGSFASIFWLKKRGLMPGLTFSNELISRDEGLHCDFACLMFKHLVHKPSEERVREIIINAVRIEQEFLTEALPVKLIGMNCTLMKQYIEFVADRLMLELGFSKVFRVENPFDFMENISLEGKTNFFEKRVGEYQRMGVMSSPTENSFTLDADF

Question: For Nc1nc(Cl)nc2c1ncn2[C@H]1C[C@H](O)[C@@H](CO)O1 [ClA, cladribine], which “RNR inhibition in cells (rate of [5-3H]-dCDP formation in lysate)” value (wt-mouse-(m)RNR-α) is on record?
Answer: potent RNR inhibition

Question: What about the “protection against cytotoxicity upon tet induction relative to noninduced” value [1] of the same compound?
Answer: > 20 fold

Question: And the “effect of RNR-α overexpression on cytotoxicity relative to noninduced cells” value [2]?
Answer: small effect on the EC50

Question: What about the “RNR reductase activity in D57N-α-expressing lines after drug treatment” value (from here on “RNR reductase activity”) [3] of the same compound?
Answer: not suppressed

Question: Which results are given for Nc1nc(Cl)nc2c1ncn2[C@H]1C[C@H](O)[C@@H](COP(=O)(O)OP(=O)(O)O)O1 [ClADP]?
Answer: time to complete oligomerization (time-dependent FRET) (RNR-α [4]): less than 5 min; inhibition of D57N-α (D57N-human RNR-α mutant [5]): did not inhibit; also recorded: failed to inhibit; also recorded: neither of the diphosphates inhibited; oligomeric state by gel filtration of α presaturated with dATP (S and A sites) (RNR-α [6]): hexameric peak was observed; further decrease in FA after S site preblocked with saturating dTTP (wild type RNR-α): no statistically significant changes

Question: With Nc1nc(Cl)nc2c1ncn2[C@H]1C[C@H](O)[C@@H](COP(=O)(O)OP(=O)(O)OP(=O)(O)O)O1 [ClATP] as the compound, how does the “inhibition of D57N-α” value (D57N-human RNR-α mutant [5]) read?
Answer: unresponsive; also recorded: failed to inhibit

Question: What about the “decrease in FA relative to dTTP/dGTP (fold less)” value (D57N RNR-α) of the same compound?
Answer: ~ 7 fold

Question: And the “further decrease in FA after S site preblocked with saturating dTTP” value (wild type RNR-α)?
Answer: 20 ± 1% and ~ 20%

Question: What about the “drop in FA on wild type protein compared with D57N” value (wild type RNR-α; ligand added in place of dTTP/dGTP) of the same compound?
Answer: significantly higher drop in FA

Question: Which “inhibition of E. coli RNR” value (E. coli RNR) does the source give for Nc1nc(Cl)nc2c1ncn2[C@@H]1O[C@H](COP(=O)(O)OP(=O)(O)OP(=O)(O)O)[C@@H](O)[C@@H]1F [ClFTP] here?
Answer: failed to inhibit

Question: Which “RNR reductase activity” value [3] does the source give for Nc1ccn([C@@H]2O[C@H](CO)[C@@H](O)C2(F)F)c(=O)n1 [F2C, gemcitabine] here?
Answer: sensitive

Question: With Nc1ccn([C@@H]2O[C@H](COP(=O)(O)OP(=O)(O)O)[C@@H](O)C2(F)F)c(=O)n1 [F2CDP, gemcitabine diphosphate] as the compound, how does the “inhibition of D57N-α” value (D57N-human RNR-α mutant [5]) read?
Answer: inhibits D57N-α as effectively as the wild type; also recorded: promoted inactivation of D57N-α as well as wt-α

Question: Which “time to complete oligomerization (time-dependent FRET)” value (RNR-α [4]) does the source give for Nc1nc(F)nc2c1ncn2[C@@H]1O[C@H](COP(=O)(O)OP(=O)(O)O)[C@@H](O)[C@@H]1O [FlUDP] here?
Answer: less than 5 min

Question: What about the “inhibition of D57N-α” value (D57N-human RNR-α mutant [5]) of the same compound?
Answer: did not inhibit; also recorded: neither of the diphosphates inhibited

Question: And the “oligomeric state of eluted α by gel filtration” value (RNR-α [6]; 20 μM FlUDP included in running buffer)?
Answer: exclusively α6

Question: For Nc1nc(F)nc2c1ncn2[C@@H]1O[C@H](COP(=O)(O)O)[C@@H](O)[C@@H]1O [FlUMP], which “RNR inhibition in cells (rate of [5-3H]-dCDP formation in lysate)” value (wt-mouse-(m)RNR-α) is on record?
Answer: potent RNR inhibition

Question: And the “effect of D57N-α overexpression on cytotoxicity relative to noninduced cells” value ([1]; 48 h drug)?
Answer: no protection

Question: And the “effect of RNR-α overexpression on cytotoxicity relative to noninduced cells” value ([2]; 48 h drug)?
Answer: no protection

Question: What about the “RNR reductase activity” value [3] of the same compound?
Answer: not suppressed

Question: Which “time to complete oligomerization (time-dependent FRET)” value (RNR-α [4]) does the source give for Nc1nc(F)nc2c1ncn2[C@@H]1O[C@H](COP(=O)(O)OP(=O)(O)OP(=O)(O)O)[C@@H](O)[C@@H]1O [FlUTP] here?
Answer: less than 5 min

Question: And the “inhibition of D57N-α” value (D57N-human RNR-α mutant [5])?
Answer: unresponsive; also recorded: failed to inhibit

Question: Which results are given for Nc1ncnc2c1ncn2[C@H]1C[C@H](O)[C@@H](COP(=O)(O)OP(=O)(O)OP(=O)(O)O)O1 [dATP]?
Answer: reduced affinity at the A site of D57N relative to wt (D57N-human RNR-α mutant [7]): ~ 300 fold; oligomeric state by gel filtration of α presaturated with dATP (S and A sites) (RNR-α [6]): only elutes as lower-order species

Question: With Cc1cn([C@H]2C[C@H](O)[C@@H](COP(=O)(O)OP(=O)(O)OP(=O)(O)O)O2)c(=O)[nH]c1=O [dTTP] as the compound, how does the “drop in FA” value (D57N RNR-α) read?
Answer: 39 ± 1%

Question: What about the “drop in FA on addition of S-site binder” value (wild type RNR-α; RNR-α 6 μM, T*-dATP 1.2 μM, saturating ligand) of the same compound?
Answer: 49 ± 1% and ~ 50%

Question: Which β-specific activity (RNR-β) does the source give for NC(=S)N/N=C/c1ncccc1N [triapine] here?
Answer: suppressed
